The subject of one series is blood plasma. In words: Measurement of Anticoagulant Activity (in vitro prothrombin time test). Set-up: species or system human, rat or rabbit. The conditions noted are these: test c). Here is the method:
c) Measurement of Anticoagulant Activity
An in vitro assay whereby human, rat or rabbit venous blood was collected and added directly to a sodium citrate solution (3.2 g/100 ml, 9 parts blood to 1 part citrate solution). Blood plasma was prepared by centrifugation (1000 g, 15 minutes) and stored at 2-4° C. Conventional prothrombin time (PT) tests were carried out in the presence of various concentrations of a test compound and the concentration of test compound required to double the clotting time, hereinafter referred to as CT2, was determined. In the PT test, the test compound and blood plasma were incubated at 37° C. for 10 minutes. Tissue thromboplastin with calcium (Sigma Limited, Poole, England) was added and fibrin formation and the time required for a clot to form were determined.

For another series, the target named is human thrombin (Homo sapiens, UniProt P00734). The experiment in a line: Measurement of Thrombin Inhibition (chromogenic substrate S-2238). Format: biochemical. The following applies: test b); read-out: IC50 against thrombin. Here is the method: b) Measurement of Thrombin Inhibition
The procedure of method a) was repeated except that human thrombin (0.005 Units/ml) and the chromogenic substrate S-2238 (KabiVitum AB, 7 μM) were employed.

In another series the target is human Factor Xa (Homo sapiens, UniProt P00742). In words: Measurement of Factor Xa Inhibition (chromogenic substrate S-2765). The conditions noted are these: test a); read-out: IC50 against Factor Xa. It counts as biochemical. Here is the method: a) Measurement of Factor Xa Inhibition
Sequence of human Factor Xa (P00742 235-488 limits assumed): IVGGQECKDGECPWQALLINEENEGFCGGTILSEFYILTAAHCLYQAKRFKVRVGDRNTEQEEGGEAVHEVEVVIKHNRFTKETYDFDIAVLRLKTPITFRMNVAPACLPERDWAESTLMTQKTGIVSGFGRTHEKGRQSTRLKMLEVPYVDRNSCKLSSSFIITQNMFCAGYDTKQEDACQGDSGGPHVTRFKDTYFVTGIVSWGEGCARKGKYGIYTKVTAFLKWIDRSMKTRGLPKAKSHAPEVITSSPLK
Sequence of human Factor Xa (P00742 41-179 partner limits assumed): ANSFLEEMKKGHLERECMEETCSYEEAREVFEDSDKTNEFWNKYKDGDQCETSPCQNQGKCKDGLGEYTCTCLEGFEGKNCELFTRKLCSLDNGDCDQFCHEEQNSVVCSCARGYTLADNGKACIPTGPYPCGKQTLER
An in vitro assay system was carried out based on the method of Kettner et al., J. Biol. Chem., 1990, 265, 18289-18297, whereby various concentrations of a test compound were dissolved in DMSO and diluted in a pH7.5 buffer containing 0.5% of a polyethylene glycol (PEG 6000) and incubated at 37° C. with human Factor Xa (0.001 Units/ml, 0.3 ml) for 15 minutes. The chromogenic substrate S-2765 (KabiVitum AB, 20 μM) was added and the mixture was incubated at 37° C. for 20 minutes whilst the absorbance at 405 nm was measured. The maximum reaction velocity (Vmax) was determined and compared with that of a control sample containing no test compound. Inhibitor potency was expressed as an IC50 value.

Molecules are shown by their SMILES. Where a name gives a salt, the structure may show the parent alone. A value given as a limit tells only on which side of the number the result lay.

Consider 15 compounds from patent publication US7173025B1, “Aminoheterocyclic derivatives as antithrombotic or anticoagulant agents” (Zeneca Limited, priority 1996, dated 2007).

By melting point is commonly meant the temperature of the solid-liquid transition. Regarding `O=S(=O)(Nc1ccc(OC2CCN(c3ccncc3)CC2)cc1)c1ccc(-c2ccc(Br)cc2)cc1` (as salt: hydrochloride) [Example 4, 4′-bromo-N-{4-[1-(4-pyridyl)piperidin-4-yloxy]phenyl}-4-biphenylylsulphonamide], the melting point was 302 to 304 °C.
Still for that read-out and setting: with `Cc1ccc(S(=O)(=O)Nc2ccc(OC3CCN(c4ccncc4)CC3)cc2)cc1` (as salt: hydrochloride) [Example 7, N-{4-[1-(4-pyridyl)piperidin-4-yloxy]phenyl}-4-toluenesulphonamide] the figure was 270 to 272 °C; with `O=S(=O)(Nc1ccc(OCC2CCN(c3ccncc3)CC2)cc1)c1ccc(-c2ccc(Br)cc2)cc1` (as salt: hydrochloride) [Example 11, 4′-bromo-N-{4-[1-(4-pyridyl)piperidin-4-ylmethoxy]phenyl}-4-biphenylylsulphonamide], 293 to 295 °C.
`O=S(=O)(Nc1ccc(OCC2CCN(c3ccncc3)CC2)cc1)c1ccc2cc(Br)ccc2c1` (as salt: hydrochloride) [Example 12, 6-bromo-N-{4-[1-(4-pyridyl)piperidin-4-ylmethoxy]-phenyl}-2-naphthalenesulphonamide] returned a melting point of 167 to 169 °C.
Consider `O=S(=O)(/C=C/c1ccc(Cl)cc1)Nc1ccc(OCC2CCN(c3ccncc3)CC2)cc1` (as salt: hydrochloride) [Example 13, 4-chloro-N-{4-[1-(4-pyridyl)piperidin-4-ylmethoxy]phenyl}-(E)-styrylsulphonamide], for which the melting point fell in the range of 220 to 223 °C.
`O=S(=O)(Nc1cccc(OC2CCN(c3ccncc3)CC2)c1)c1ccc2cc(Br)ccc2c1` (as salt: hydrochloride) [Example 16, 6-bromo-N-{3-[1-(4-pyridyl)piperidin-4-yloxy]phenyl}-2-naphthalenesulphonamide] yielded a melting point of 298 to 300 °C.
`O=S(=O)(/C=C/c1ccc(Cl)cc1)Nc1cccc(OC2CCN(c3ccncc3)CC2)c1` (as salt: hydrochloride) [Example 21, 4-chloro-N -{3-[1-(4-pyridyl)piperidin-4-yloxy]phenyl}-(E)-styrylsulphonamide]: the melting point lay within 147 to 150 °C.
For `O=S(=O)(c1ccc(S(=O)(=O)N2CCN(c3ccncc3)CC2)cc1)c1ccc2cc(Br)ccc2c1` (as salt: trifluoroacetate) [Example 25, 4-[4-(6-bromonaphth-2-ylsulphonyl)phenylsulphonyl]-1-(4-pyridyl)piperazine], the melting point is 236 to 238 °C.
By IC50 is commonly meant the concentration needed to halve the response being measured. The compound `O=C(c1ccc(S(=O)(=O)c2ccc3cc(Cl)ccc3c2)cc1)N1CCN(c2ccncc2)CC1` [Example 1, 1-[4-(6-chloronaphth-2-ylsulphonyl)benzoyl]-4-(4-pyridyl)piperazine] gave a melting point of 267 to 269 °C. Besides, in the series on blood plasma, the “CT2 (PT), concentration of test compound required to double the clotting time” value amounted to 5 µM. The IC50 at human thrombin was more than 40000 nM. At human Factor Xa, the IC50 was 13 nM.
The compound `Cc1ccc(S(=O)(=O)N(c2ccc(OC3CCN(c4ccncc4)CC3)cc2)S(=O)(=O)c2ccc(C)cc2)cc1` [Example 8, N-{4-[1-(4-pyridyl)piperidin-4-yloxy]phenyl}-N-(4-tolylsulphonyl)-4-toluenesulphonamide] gave a melting point of 196 to 198 °C.
As for `O=S(=O)(c1ccc(-c2ccc(Br)cc2)cc1)N(c1ccc(OCC2CCN(c3ccncc3)CC2)cc1)S(=O)(=O)c1ccc(-c2ccc(Br)cc2)cc1` [Example 14, 4′-bromo-N-(4′-bromo-4-biphenylylsulphonyl)-N-{4-[1-(4-pyridyl)piperidin-4-ylmethoxy]phenyl}-4-biphenylylsulphonamide], the melting point fell in the range of 136 to 140 °C.
Compound `O=S(=O)(c1ccc2cc(Br)ccc2c1)N(c1ccc(OCC2CCN(c3ccncc3)CC2)cc1)S(=O)(=O)c1ccc2cc(Br)ccc2c1` [Example 15, 6-bromo-N-(6-bromonaphth-2-ylsulphonyl)-N-{4-[1-(4-pyridyl)piperidin-4-ylmethoxy]phenyl}-2-naphthalenesulphonamide] displayed a melting point of 246 to 252 °C.
Take `O=S(=O)(Nc1ccccc1OCC1CCN(c2ccncc2)CC1)c1ccc2cc(Br)ccc2c1` [Example 20, 6-bromo-N-{2-[1-(4-pyridyl)piperidin-4-ylmethoxy]phenyl}-2-naphthalenesulphonamide]: the melting point was 197 to 200 °C.
The same measure, in the same setting: for `O=S(=O)(c1ccc(OC2CCN(c3ccncc3)CC2)cc1)c1ccc2cc(Br)ccc2c1` [Example 22, 4-[4-(6-bromonaphth-2-ylsulphonyl)phenoxy]-1-(4-pyridyl)piperidine] the value was 180 to 183 °C; for `O=C(c1ccc(Sc2ccc3cc(Br)ccc3c2)cc1)N1CCN(c2ccncc2)CC1` [Example 27, 1-[4-(6-bromonaphth-2-ylthio)benzoyl]-4-(4-pyridyl)piperazine], 210 to 213 °C.
